Where a name gives a salt, the structure may show the parent alone. Read-outs that look alike come from different tables or passages of the source.
Experiments:
Assay type in all cases: cell-based
DU145 = test: Tumor cell growth inhibition, Trypan blue exclusion, DU145; details: Homo sapiens, cell viability after 96 hours vs vehicle (DMSO)
Protocol: (§1) The effect of Compounds of Formula I on tumor cells of prostate, colon, lung, pancreatic, brain, renal, gastrointestinal, epidermal, lymphocytic, ovary and breast origin was examined by utilizing a variety of cancer cell lines (listed in Table 6). Cells were plated at density levels of 1.0×10^5 cells per well in six-well plates. Cell cultures were maintained at 37° C. in a humidified atmosphere of 5% CO2.
(§2) In addition, DU-145 cells were treated with three additional compounds of the invention: (E)-4-(3-(5-((2,4,6-trimethoxystyrylsulfonyl)methyl)-2-methoxyphenoxy)propyl)morpholine; (E)-5-((2,4,6-trimethoxystyrylsulfonyl)methyl)-2-methoxyphenyl 2-(dimethylamino)acetate; and (E)-5-((2,4,6-trimethoxystyrylsulfonyl)methyl)-2-methoxyphenyl 4-methylbenzenesulfonate, the structures of which are shown in Table 7.
(§3) Values are reported as the GI50, i.e., the concentration (μM) required for 50% growth inhibition as compared to vehicle (DMSO) treated cells. The notations “ER+” and “ER−” designate breast cancer lines that are responsive and non-responsive to estrogen, respectively. The notations “AR+” and “AR−” designate prostate cancer lines that are responsive and non-responsive to androgens, respectively. […] For cell lines designated by “*”, the dose response curve for the compound (E)-5-((2,4,6-trimethoxystyrylsulfonyl)methyl)-2-methoxyphenol (Example 1) is set forth in FIG. 1.

A549 = test: Tumor cell growth inhibition, Trypan blue exclusion, A549; details: Homo sapiens; A549, Nsclc; cell viability after 96 hours vs vehicle (DMSO)
Protocol: as §1
(§4) Cells of 36 different cell lines were treated with (E)-5-((2,4,6-trimethoxystyrylsulfonyl)methyl)-2-methoxyphenol (Example 1) or (E)-5-((2,4,6-trimethoxystyrylsulfonyl)methyl)-2-methoxy-phenyl dihydrogen phosphate disodium salt (Example 5) at doses ranging from 2 nM to 10 nM concentration, and cell viability was determined after 96 hours by the Trypan blue exclusion method. In addition, DU-145 cells were treated with three additional compounds of the invention: (E)-4-(3-(5-((2,4,6-trimethoxystyrylsulfonyl)methyl)-2-methoxyphenoxy)propyl)morpholine; (E)-5-((2,4,6-trimethoxystyrylsulfonyl)methyl)-2-methoxyphenyl 2-(dimethylamino)acetate; and (E)-5-((2,4,6-trimethoxystyrylsulfonyl)methyl)-2-methoxyphenyl 4-methylbenzenesulfonate, the structures of which are shown in Table 7.
(§5) Values are reported as the GI50, i.e., the concentration (μM) required for 50% growth inhibition as compared to vehicle (DMSO) treated cells. […]

SK-MEL-28 = test: Tumor cell growth inhibition, Trypan blue exclusion, SK-MEL-28; details: Homo sapiens; SK-MEL-28, Melanoma; cell viability after 96 hours vs vehicle (DMSO)
Protocol: as §1, §4, §5

U87 = test: Tumor cell growth inhibition, Trypan blue exclusion, U87; details: Homo sapiens, U-87 MG; U87, Glioblastoma; cell viability after 96 hours vs vehicle (DMSO)
Protocol: as §1, §4, §5

BT20 = test: Tumor cell growth inhibition, Trypan blue exclusion, BT20; details: Homo sapiens, BT-20; BT20, Breast (Er−); cell viability after 96 hours vs vehicle (DMSO)
Protocol: as §1, §2, §3

MIA-PACA2 = test: Tumor cell growth inhibition, Trypan blue exclusion, MIA-PACA2; details: Homo sapiens, MIA PaCa-2; MIA-PACA2, Pancreatic; cell viability after 96 hours vs vehicle (DMSO)
Protocol: as §1, §4, §5

H157 = test: Tumor cell growth inhibition, Trypan blue exclusion, H157; details: Homo sapiens, NCI-H157; H157, Nsclc; cell viability after 96 hours vs vehicle (DMSO)
Protocol: as §1, §4, §5

N417 = test: Tumor cell growth inhibition, Trypan blue exclusion, N417; details: N417, Sclc; cell viability after 96 hours vs vehicle (DMSO)
Protocol: as §1, §4, §5

DLD-1 = test: Tumor cell growth inhibition, Trypan blue exclusion, DLD-1; details: Homo sapiens; DLD-1, Colo-Rectal; cell viability after 96 hours vs vehicle (DMSO)
Protocol: as §1, §4, §5

HCT-15 = test: Tumor cell growth inhibition, Trypan blue exclusion, HCT-15; details: Homo sapiens; HCT-15, Colo-Rectal; cell viability after 96 hours vs vehicle (DMSO)
Protocol: as §1, §4, §5

AGS = test: Tumor cell growth inhibition, Trypan blue exclusion, AGS; details: Homo sapiens, Gastric, cell viability after 96 hours vs vehicle (DMSO)
Protocol: as §1, §4, §5

OV-CAR-3 = test: Tumor cell growth inhibition, Trypan blue exclusion, OV-CAR-3; details: Homo sapiens, OVCAR-3; OV-CAR-3, Ovarian; cell viability after 96 hours vs vehicle (DMSO)
Protocol: as §1, §4, §5

2008 = test: Tumor cell growth inhibition, Trypan blue exclusion, 2008; details: 2008, Ovarian; cell viability after 96 hours vs vehicle (DMSO)
Protocol: as §1, §4, §5

HCT-116 = test: Tumor cell growth inhibition, Trypan blue exclusion, HCT-116; details: Homo sapiens; HCT-116, Colo-Rectal; cell viability after 96 hours vs vehicle (DMSO)
Protocol: as §1, §4, §5

Raji = test: Tumor cell growth inhibition, Trypan blue exclusion, Raji; details: Homo sapiens, Burkitt's Lymphoma (B-Cell), cell viability after 96 hours vs vehicle (DMSO)
Protocol: as §1, §4, §5

2008/17/4 = test: Tumor cell growth inhibition, Trypan blue exclusion, 2008/17/4; details: 2008/17/4, Resistant Ovarian; cell viability after 96 hours vs vehicle (DMSO)
Protocol: as §1, §4, §5

LNCAP = test: Tumor cell growth inhibition, Trypan blue exclusion, LNCAP; details: Homo sapiens, Prostate (Ar+), cell viability after 96 hours vs vehicle (DMSO)
Protocol: as §1, §4, §5

Sk-OV-3 = test: Tumor cell growth inhibition, Trypan blue exclusion, Sk-OV-3; details: Homo sapiens; Sk-OV-3, Ovarian; cell viability after 96 hours vs vehicle (DMSO)
Protocol: as §1, §4, §5

PC-3 = test: Tumor cell growth inhibition, Trypan blue exclusion, PC-3; details: Homo sapiens; PC-3, Prostate; cell viability after 96 hours vs vehicle (DMSO)
Protocol: as §1, §4, §5

Cem/C2 = test: Tumor cell growth inhibition, Trypan blue exclusion, Cem/C2; details: Homo sapiens; Cem/C2, Resistant Leukemic; cell viability after 96 hours vs vehicle (DMSO)
Protocol: as §1, §4, §5

RF48 = test: Tumor cell growth inhibition, Trypan blue exclusion, RF48; details: RF48, Gastric; cell viability after 96 hours vs vehicle (DMSO)
Protocol: as §1, §4, §5

COLO-320 = test: Tumor cell growth inhibition, Trypan blue exclusion, COLO-320; details: Homo sapiens; COLO-320, Colo-Rectal; cell viability after 96 hours vs vehicle (DMSO)
Protocol: as §1, §4, §5

K562 = test: Tumor cell growth inhibition, Trypan blue exclusion, K562; details: Homo sapiens; K562, Cml; cell viability after 96 hours vs vehicle (DMSO)
Protocol: as §1, §4, §5

H187 = test: Tumor cell growth inhibition, Trypan blue exclusion, H187; details: Homo sapiens, NCI-H187; H187, Sclc; cell viability after 96 hours vs vehicle (DMSO)
Protocol: as §1, §4, §5

CAKI-2 = test: Tumor cell growth inhibition, Trypan blue exclusion, CAKI-2; details: Homo sapiens; CAKI-2, Renal; cell viability after 96 hours vs vehicle (DMSO)
Protocol: as §1, §4, §5

CEM [1] = test: Tumor cell growth inhibition, Trypan blue exclusion, Cem (second listing); details: Homo sapiens, Leukemic (second listing, parent of Cem/C2), cell viability after 96 hours vs vehicle (DMSO)
Protocol: as §1, §4, §5

MCF-7 = test: Tumor cell growth inhibition, Trypan blue exclusion, MCF-7; details: Homo sapiens, MCF7; MCF-7, Breast (Er+); cell viability after 96 hours vs vehicle (DMSO)
Protocol: as §1, §4, §5

Namalwa = test: Tumor cell growth inhibition, Trypan blue exclusion, Namalwa; details: Burkitt's Lymphoma (B-Cell), cell viability after 96 hours vs vehicle (DMSO)
Protocol: as §1, §4, §5

CEM [2] = test: Tumor cell growth inhibition, Trypan blue exclusion, CEM; details: Homo sapiens, CCRF-CEM, Leukemic, cell viability after 96 hours vs vehicle (DMSO)
Protocol: as §1, §4, §5

Mes-Sa = test: Tumor cell growth inhibition, Trypan blue exclusion, Mes-Sa; details: Homo sapiens, Sarcoma, cell viability after 96 hours vs vehicle (DMSO)
Protocol: as §1, §4, §5

Mes-Sa/Dx5 = test: Tumor cell growth inhibition, Trypan blue exclusion, Mes-Sa/Dx5; details: Homo sapiens; Mes-Sa/Dx5, Resistant Sarcoma; cell viability after 96 hours vs vehicle (DMSO)
Protocol: as §1, §4, §5

T47D = test: Tumor cell growth inhibition, Trypan blue exclusion, T47D; details: Homo sapiens, Breast (Er+), cell viability after 96 hours vs vehicle (DMSO)
Protocol: as §1, §4, §5

SW480 = test: Tumor cell growth inhibition, Trypan blue exclusion, SW480; details: Homo sapiens; SW480, Colo-Rectal; cell viability after 96 hours vs vehicle (DMSO)
Protocol: as §1, §4, §5

RF1 = test: Tumor cell growth inhibition, Trypan blue exclusion, RF1; details: RF1, Gastric; cell viability after 96 hours vs vehicle (DMSO)
Protocol: as §1, §4, §5

MOLT-4 = test: Tumor cell growth inhibition, Trypan blue exclusion, MOLT-4; details: Homo sapiens; MOLT-4, T-Lymphoblastic: All; cell viability after 96 hours vs vehicle (DMSO)
Protocol: as §1, §4, §5

Daudi = test: Tumor cell growth inhibition, Trypan blue exclusion, Daudi; details: Homo sapiens, Burkitt's Lymphoma (B-Cell), cell viability after 96 hours vs vehicle (DMSO)
Protocol: as §1, §4, §5

[3] = DU-145 cells, Table 7, read-out: DU-145 GI50
[4] = DU-145, DU145, Prostate (Ar−), read-out: GI50

In the case of `COc1cc(OC)c(/C=C/S(=O)(=O)Cc2ccc(OC)c(OCCCN3CCOCC3)c2)c(OC)c1` [(E)-4-(3-(5-((2,4,6-trimethoxystyrylsulfonyl)methyl)-2-methoxyphenoxy)propyl)morpholine], the GI50 (DU145; [3]) is reported as > 10000 nM.
`COc1cc(OC)c(/C=C/S(=O)(=O)Cc2ccc(OC)c(OC(=O)CN(C)C)c2)c(OC)c1` [(E)-5-((2,4,6-trimethoxystyrylsulfonyl)methyl)-2-methoxyphenyl 2-(dimethylamino)acetate] showed a GI50 (DU145; [3]) of 4 to 10 nM.
`COc1cc(OC)c(/C=C/S(=O)(=O)Cc2ccc(OC)c(OP(=O)(O)O)c2)c(OC)c1` [Example 5, (E)-5-((2,4,6-trimethoxystyrylsulfonyl)methyl)-2-methoxyphenyl dihydrogen phosphate, disodium salt] gave a GI50 (A549) of 20 nM, a GI50 (SK-MEL-28) of 12 nM and a GI50 (U87) of 9 nM. For the same compound, the GI50 (DU145; [4]) was 5 nM, the GI50 (BT20) was 8 nM and the GI50 (MIA-PACA2) was 4 nM. It also gave a GI50 (H157) of 12 nM, a GI50 (N417) of 4 nM and a GI50 (DLD-1) of 12 nM. The GI50 (HCT-15) was 12 nM and the GI50 (AGS) was 9 nM.
`COc1cc(OC)c(/C=C/S(=O)(=O)Cc2ccc(OC)c(O)c2)c(OC)c1` [Example 1, (E)-5-((2,4,6-trimethoxystyrylsulfonyl)methyl)-2-methoxyphenol] was tested, and the GI50 (OV-CAR-3) was 30 nM, the GI50 2008 was 5 nM and the GI50 (A549) was 10 nM. It also gave a GI50 (SK-MEL-28) of 7 nM, a GI50 (HCT-116) of 6 nM and a GI50 (Raji) of 1 nM. For the same compound, the GI50 (U87) was 7 nM, the GI50 (2008/17/4) was 6 nM and the GI50 (LNCAP) was 10 nM. It also gave a GI50 (Sk-OV-3) of 4 nM, a GI50 (PC-3) of 5 nM and a GI50 (Cem/C2) of 3 nM. It also gave a GI50 (RF48) of 1 nM, a GI50 (COLO-320) of 3 nM and a GI50 (K562) of 4 nM. For the same compound, the GI50 (DU145; [4]) was 5 nM, the GI50 (BT20) was 80 nM and the GI50 (H187) was 3 nM. The GI50 (CAKI-2) was 6 nM, the GI50 (CEM [1]) was 4 nM and the GI50 (MCF-7) was 10 nM. The GI50 (MIA-PACA2) was 3 nM, the GI50 (Namalwa) was 3 nM and the GI50 (H157) was 7 nM. It also gave a GI50 (CEM [2]) of 4 nM, a GI50 (N417) of 3 nM and a GI50 (Mes-Sa) of 5 nM. For the same compound, the GI50 (Mes-Sa/Dx5) was 5 nM, the GI50 (T47D) was 10 nM and the GI50 (SW480) was 5 nM. For the same compound, the GI50 (RF1) was 3 nM, the GI50 (MOLT-4) was 3 nM and the GI50 (DLD-1) was 7 nM. The GI50 (HCT-15) was 7 nM, the GI50 (Daudi) was 3 nM and the GI50 (AGS) was 5 nM.
With `COc1cc(OC)c(/C=C/S(=O)(=O)Cc2ccc(OC)c(OS(=O)(=O)c3ccc(C)cc3)c2)c(OC)c1` [(E)-5-((2,4,6-trimethoxystyrylsulfonyl)methyl)-2-methoxyphenyl 4-methylbenzenesulfonate] the GI50 (DU145; [3]) was > 1000 nM.

From patent US7932242B2, “Substituted phenoxy-and phenylthio-derivatives for treating proliferative disorders” (Temple University - Of The Commonwealth System of Higher …, priority 2004, dated 2011)
